In patent US7029879B1, “Iodine uptake restoration in thyroid cancer” (University of Kentucky Research Foundation, priority 1999, dated 2006):

How the values were obtained:
[1] = test system: human thyroid cancer cell lines; conditions: several human thyroid cancer cell lines in vitro; cited from earlier work
hNIS mRNA = hNIS mRNA RT-PCR after polyamine synthesis inhibition; assay type: cell-based, human; conditions: NPA'87 and KAK-1; DFMO 1 or 3 mM, AdoDATO 10 or 30 μM, 6 days; higher doses greater effect
From the text: (§1) hNIS transcriptional failure in thyroid carcinoma could be consequent to methylation of DNA in critical regulatory regions and could be reversed by inhibition of DNA-methyltransferase. Restoration of hNIS gene expression and activity from direct DNA-methyltransferase inhibition by 5-azacytidine has been shown. […] Since dcSAM is consumed by synthesis of polyamines (putrescine, spermidine, spermine) and its synthetic enzyme (adenosylmethionine decarboxylase) is stimulated by polyamine depletion, blockade of polyamine synthesis precipitously increases dcSAM levels. This should block DNA-methyltransferase activity and restore lost hNIS expression in dedifferentiated thyroid carcinomas. To assess this, human thyroid cell lines (NPA'87, papillary carcinoma, & KAK-1, follicular adenoma) without basal expression of hNIS or thyroglobulin (TG) mRNAs, were grown as monolayers in phenol red-free RPMI 1640 with 10% fetal bovine serum. […] Parallel cultures were assessed for Na[^125I] uptake (RAIU) in serum-free buffer, subtracting ^125I counts in buffer with choline (100 mM) to correct for non-specific counts and results normalized for cell density in each condition using thiazolyl blue (MTT) assays. […]

thyroglobulin (TG) mRNA = assay: Thyroglobulin (TG) mRNA RT-PCR after polyamine synthesis inhibition; assay type: cell-based, human; conditions: NPA'87 and KAK-1; DFMO 1 or 3 mM, AdoDATO 10 or 30 μM, 6 days; higher doses greater effect
From the text: as §1

[2] = test system: thyroid peroxidase (TPO) mRNA; assay: Thyroid peroxidase (TPO) mRNA RT-PCR after polyamine synthesis inhibition; assay type: cell-based, human; conditions: NPA'87 and KAK-1; minimal basal expression; every dosage
From the text: as §1

KAK-1 cells = assay: Na[125I] uptake (RAIU) after polyamine synthesis inhibition, KAK-1; assay type: cell-based, human; conditions: 30 μM AdoDATO
From the text: as §1

NPA'87 cells = assay: Na[125I] uptake (RAIU) after polyamine synthesis inhibition, NPA'87; assay type: cell-based, human; conditions: DFMO at 3 mM
From the text: as §1

[3] = test system: UCLA RO 82 W-1 (WRO82) cells; conditions: UCLA RO 82 W-1 (WRO82) follicular carcinoma cell line; cited from earlier work
[4] = test system: dedifferentiated follicular and papillary thyroid cancers; conditions: of 14 patients not concentrating any radioiodine in metastatic tumors at baseline; cited from earlier work

Row | TPO expression [2] | Molecule | hNIS mRNA expression (hNIS mRNA) | TG mRNA expression (thyroglobulin (TG) mRNA) | other results
1 | – | gamma interferon: cytokine suggested in the literature to minimally enhance iodide uptake in thyroid cancer cell lines | – | – | enhancement of iodide uptake [1]: minimal enhancement
2 | enhancing expression at every dosage | NCCCCC[S+](CCN)CC1OC(n2cnc3c(N)ncnc32)C(O)C1O (stereo not drawn) [AdoDATO, S-adenosyl-1,8-diamino-3-thio-octane] | restored | restored | increase in RAIU (KAK-1 cells): ~5 fold
3 | enhancing expression at every dosage | NCCCC(N)(C(=O)O)C(F)F (stereo not drawn) [DFMO, difluoromethylomithine] | restored | restored | increase in RAIU (NPA'87 cells): > 6 fold
4 | – | CC1=C(/C=C/C(C)=C/C=C/C(C)=C\C(=O)O)C(C)(C)CCC1 [13cis-retinoic acid] | – | – | iodide uptake activity [3]: nominal increase; additional patients gaining "weak" uptake [4]: three; patients re-establishing distinct iodide uptake after treatment [4]: one
